The numbers were not newly measured in patent US12653831B2, “Methods for the non-toxic treatment for opioid drug withdrawal combining noribogaine and cannabinoids” (priority 2019, dated 2026), which cites them from elsewhere.

Read-outs that look alike come from different tables or passages of the source.

One series concerns β-amyloid-injected mice. The conditions noted are these: subchronic administration for 3 weeks.
The target in the next series is CB2 receptors (Homo sapiens, UniProt P34972).
Sequence of CB2 receptors (P34972 whole entry): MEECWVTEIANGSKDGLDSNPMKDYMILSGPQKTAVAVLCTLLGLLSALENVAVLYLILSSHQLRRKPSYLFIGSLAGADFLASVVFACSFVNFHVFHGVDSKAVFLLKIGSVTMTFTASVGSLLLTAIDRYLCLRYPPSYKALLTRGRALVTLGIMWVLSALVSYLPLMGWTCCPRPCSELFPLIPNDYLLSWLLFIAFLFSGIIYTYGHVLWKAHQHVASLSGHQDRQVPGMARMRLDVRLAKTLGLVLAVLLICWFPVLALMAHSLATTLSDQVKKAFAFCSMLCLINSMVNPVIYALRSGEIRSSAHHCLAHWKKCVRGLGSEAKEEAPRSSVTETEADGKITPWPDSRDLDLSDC
Another series deals with N13 microglial cells. The conditions noted are these: ATP 400 μM, cultured N13 microglial cells.
In another series the test system is primary microglia. To be noted: for sensitivity of the induced migration to cannabinoid receptor antagonists: with CB(1)/CB(2) antagonists.
A further series deals with rat primary microglia. The conditions noted are these: ATP 400 μM.
Assay in series [1]: not given
The source holds these as a separate data set.

For series [2] the following is noted: high doses, various animal models.

In the case of `C=C(C)[C@@H]1CCC(C)=C[C@H]1c1c(O)cc(CCCCC)cc1O` [CBD, cannabidiol], the tolerability entry (in humans) is on record as “well tolerated without side effects”. Moreover, where the note is “in vivo”, the “psychoactive or cognitive effects” value is “does not induce psychoactive or cognitive effects”. In addition, in the series with β-amyloid-injected mice, the cytokine gene expression entry is on record as “able to prevent” and the “learning of a spatial navigation task” value is recorded as “able to prevent”. On CB2 receptors, the “binding to CB2 receptors” value is “binds very weakly”. Moreover, the “effect on ATP-induced increase in intracellular calcium ([Ca(2+)](i))” value with N13 microglial cells is reported as “concentration-dependently decreased”. Further, in the series with primary microglia, the “effect on primary microglia migration” value is given as “promoted” and the “sensitivity of the induced migration to cannabinoid receptor antagonists” value (shortened to “sensitivity of the induced migration”) is “blocked by CB(1) and/or CB(2) antagonists”. Further, the “effect on ATP-induced increase in intracellular calcium ([Ca(2+)](i))” value in the series on rat primary microglia is “concentration-dependently decreased”.
Turning to `CCCCCCC(C)(C)c1cc(OC)c([C@@H]2C=C(CO)[C@@H]3C[C@H]2C3(C)C)c(OC)c1` [HU-308], the “effect on ATP-induced increase in intracellular calcium ([Ca(2+)](i))” value in the series with N13 microglial cells is given as “without effect”. Further, in the series with primary microglia, the “effect on primary microglia migration” value is reported as “induced” and the “sensitivity of the induced migration” value was “blocked by a CB(2) antagonist only”. In addition, the “effect on ATP-induced increase in intracellular calcium ([Ca(2+)](i))” value in the series with rat primary microglia is given as “without effect”.
On to `Cc1c(C(=O)c2cccc3ccccc23)c2cccc3c2n1[C@H](CN1CCOCC1)CO3` [WIN 55,212-2, (R)-(+)-[2,3-dihydro-5-methyl-3-(4-morpholinylmethyl)pyrrolo-[1,2,3-d,e]-1,4-benzoxazin-6-yl]-1-naphthalenyl-methanone], for which, in the series with β-amyloid-injected mice, the cytokine gene expression entry is recorded as “able to prevent” and the “learning of a spatial navigation task” value is “able to prevent”. Also, in the series with N13 microglial cells, the “effect on ATP-induced increase in intracellular calcium ([Ca(2+)](i))” value was “concentration-dependently decreased”. In the series on primary microglia, the “effect on primary microglia migration” value was “promoted” and the “sensitivity of the induced migration” value was “blocked by CB(1) and/or CB(2) antagonists”. In the series on rat primary microglia, the “effect on ATP-induced increase in intracellular calcium ([Ca(2+)](i))” value is listed as “concentration-dependently decreased”.
As for `CC[C@H]1CC2C[C@H]3c4[nH]c5ccc(O)cc5c4CCN(C2)C13` [noribogaine, Noribogaine], the “effect on EKG QTc interval” value was “shortens the QTc interval” in series [1] (dose of 30 mg daily) and “increase QTc” in series [1] (higher doses (above 60 mg/day)). The “adverse effects in preclinical toxicity studies” value in series [2] was “serious cardiac and CNS adverse effects”.
